Assay results: US12331041B2, “GLP-1 receptor agonists and uses thereof” (Pfizer Inc., priority 2018, dated 2025)
Structures can show the parent of a compound that is named as a salt.

How the values were obtained:
human GLP-1R [1] = biological target: T1, human GLP-1R (Homo sapiens, UniProt P43220, L260F); assay: CHO GLP-1R Clone C6 - Assay 2 (HTRF cAMP agonist assay); format: cell-based; settings: for EC50: CHO clone C6, low GLP-1R density, cAMP, geometric mean; for Emax: CHO clone C6, relative to saturating full agonist GLP-1 (1 μM), arithmetic mean
T1 construct: expressed in transfected cells; host or cells: CHO Flp-In T-REx, clonal line C6 (pcDNA5-FRT-TO)
T1 sequence (P43220 24-463 L260F): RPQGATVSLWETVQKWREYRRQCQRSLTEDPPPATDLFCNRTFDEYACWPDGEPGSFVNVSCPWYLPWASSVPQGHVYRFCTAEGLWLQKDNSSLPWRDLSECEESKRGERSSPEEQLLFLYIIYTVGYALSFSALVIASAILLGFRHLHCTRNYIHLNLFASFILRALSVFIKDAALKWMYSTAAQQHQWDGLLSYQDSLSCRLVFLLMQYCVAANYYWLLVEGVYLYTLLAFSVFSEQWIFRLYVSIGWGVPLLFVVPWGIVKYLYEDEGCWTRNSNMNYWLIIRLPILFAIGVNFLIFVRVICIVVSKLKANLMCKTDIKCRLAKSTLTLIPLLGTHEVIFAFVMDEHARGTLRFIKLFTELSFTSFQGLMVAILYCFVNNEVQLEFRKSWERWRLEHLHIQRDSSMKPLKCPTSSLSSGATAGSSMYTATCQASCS

human GLP-1R [2] = biological target: T2, human GLP-1R (Homo sapiens, UniProt P43220, G168S); assay: CHO GLP-1R Clone H6 - Assay 1 (HTRF cAMP agonist assay); format: cell-based; settings: for EC50: CHO Clone H6, high GLP-1R density, cAMP, geometric mean; for Emax: CHO Clone H6, relative to saturating full agonist GLP-1 7-36 (1 μM), arithmetic mean
T2 construct: expressed in transfected cells
T2 sequence (P43220 24-463 G168S): as the sequence (P43220 24-463 L260F) above, with G145S, F237L counted along it
Procedure, shortened: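 CHO Clone H6 cells stably expressing human GLP-1R (G168S) were plated 48 h, then given compound for 30 min at 37° C in HBSS/0.1% BSA/HEPES with 100 μM IBMX and 1% DMSO. cAMP was measured by HTRF against a standard curve.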

EC50 (human GLP-1R [1]) [nM] | Emax (human GLP-1R [1]) [%] | EC50 (human GLP-1R [2]) [nM] | Emax (human GLP-1R [2]) [%] | SMILES
370 | 100 | 21 | 88 | C[C@@H]1CN(c2ccnc(OCc3ccc(Cl)cc3F)n2)CCN1Cc1nc2ccc(C(=O)O)cc2n1C[C@@H]1CCO1 [Example 75, ammonium 2-{[(2R)-4-{2-[(4-chloro-2-fluorobenzyl)oxy]pyrimidin-4-yl}-2-methylpiperazin-1-yl]methyl}-1-[(2S)-oxetan-2-ylmethyl]-1H-benzimidazole-6-carboxylate]
180 | 100 | 12 | 88 | C[C@@H]1CN(Cc2nc3ccc(C(=O)O)cc3n2C[C@@H]2CCO2)[C@@H](C)CN1c1ccnc(OCc2ccc(Cl)cc2F)n1 [Example 76, ammonium 2-{[(2S,5R)-4-{2-[(4-chloro-2-fluorobenzyl)oxy]pyrimidin-4-yl}-2,5-dimethylpiperazin-1-yl]methyl}-1-[(2S)-oxetan-2-ylmethyl]-1H-benzimidazole-6-carboxylate]
110 | 110 | 4.4 | 100 | C[C@H]1CN(c2ccnc(OCc3ccc(Cl)cc3F)n2)CCN1Cc1nc2ccc(C(=O)O)nc2n1C[C@@H]1CCO1 [Example 77, 2-{[(2S)-4-{2-[(4-chloro-2-fluorobenzyl)oxy]pyrimidin-4-yl}-2-methylpiperazin-1-yl]methyl}-3-[(2S)-oxetan-2-ylmethyl]-3H-imidazo[4,5-b]pyridine-5-carboxylic acid]
440 | 81 | 17 | 79 | C[C@H]1CN(c2ccnc(OCc3ccc(Cl)cc3F)n2)CCN1Cc1nc2ccc(C(=O)O)cc2n1Cc1ncco1 [Example 78, 2-{[(2S)-4-{2-[(4-chloro-2-fluorobenzyl)oxy]pyrimidin-4-yl}-2-methylpiperazin-1-yl]methyl}-1-(1,3-oxazol-2-ylmethyl)-1H-benzimidazole-6-carboxylic acid, trifluoroacetate salt]
